In patent publication US20080139484A1, “1(Beta-D-Glycopyranosyl)-3-Substituted Nitrogenous Heterocyclic Compound, Medicinal Composition Containing the Same, and Medicinal Use Thereof” (KISSEI PHARMACEUTICAL CO., LTD., priority 2004, published 2008):

What was measured:
[1] = Test Example 2: effect on urinary glucose excretion; format: in vivo; settings: overnight fasted male SD rats, 7 weeks of age, 1 mg/kg intravenously (3 mL/kg), urine collected for 24 hours
Experimental: As experimental animals, overnight fasted SD rats (CHARLES RIVER LABORATORIES JAPAN. Inc., Crj:CD(SD(IGS), male, 7 weeks of age, 200-230 g) were used.
Example 10 compound of 2.12 mg was dissolved by adding 636 μL of ethanol and 2544 μL of polyethylene glycol 400. And then the solution was mixed with 3180 μL of saline and sonicated. Example 12 compound of 2.18 mg was dissolved by adding 654 μL of ethanol and 2616 μL of polyethylene glycol 400. And then the solution was mixed with 3270 μL of saline and sonicated. These test compound solutions of 0.33 mg/mL were used for administration.
The body weights of rats were measured and the solution of the test compound was intravenously injected to the tail vein of rats at the dose of 3 mL/kg (1 mg/kg as test compound). Collection of urine was performed for 24 hours after the administration. […]
Frozen samples were thawed and mixed well. According to need, a part of samples was diluted with distilled water and the glucose concentration of these samples was measured with a kit for laboratory test: Glucose CII-Test WAKO (Wako Pure Chemical Industries, Ltd.).
The amounts of urinary glucose excretion per 200 g of body weight were calculated from glucose concentration of urinary samples, dilution factor, urinary volume and body weight using the following equation. […]

[2] = molecular target: T1, human SGLT1 (Homo sapiens, UniProt P13866); experiment: Inhibition of methyl-α-D-glucopyranoside (α-MG) uptake in COS-7 cells expressing human SGLT1; format: cell-based; settings: COS-7 cells expressing human SGLT1, 1 mM α-MG, 1 hour incubation at 37° C.
T1 construct: expressed in transfected cells; host or cells: COS-7 cells, transient lipofection (Lipofectamine-2000) of pcDNA3.1(-) vector
T1 sequence (P13866 1-664): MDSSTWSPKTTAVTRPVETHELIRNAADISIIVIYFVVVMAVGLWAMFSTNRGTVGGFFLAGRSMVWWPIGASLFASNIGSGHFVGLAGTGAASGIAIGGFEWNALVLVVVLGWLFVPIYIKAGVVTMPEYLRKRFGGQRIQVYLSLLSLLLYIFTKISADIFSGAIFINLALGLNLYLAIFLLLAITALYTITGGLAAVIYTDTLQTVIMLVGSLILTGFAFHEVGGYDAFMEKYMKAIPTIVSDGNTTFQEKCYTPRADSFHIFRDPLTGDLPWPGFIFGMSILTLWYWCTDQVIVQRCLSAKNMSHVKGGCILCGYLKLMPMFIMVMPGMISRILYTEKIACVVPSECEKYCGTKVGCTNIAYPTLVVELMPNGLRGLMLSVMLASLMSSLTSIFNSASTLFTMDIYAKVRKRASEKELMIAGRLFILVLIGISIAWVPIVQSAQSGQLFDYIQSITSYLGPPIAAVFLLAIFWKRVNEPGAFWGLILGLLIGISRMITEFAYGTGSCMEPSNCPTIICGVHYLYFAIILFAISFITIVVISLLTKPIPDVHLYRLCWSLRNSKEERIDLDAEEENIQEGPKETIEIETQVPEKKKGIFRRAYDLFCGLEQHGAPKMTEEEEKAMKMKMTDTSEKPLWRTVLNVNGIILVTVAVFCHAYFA
Experimental: (§1) Assay for Inhibitory Effects on Human SGLT Activity
(§2) The cDNA library was prepared for PCR amplification by reverse transcription from total RNA deprived from human small intestine (Ori gene) using oligo-dT as a primer. Using this cDNA library as a template, the DNA fragment coding 1 to 2005 bp of human SGLT1 (ACCESSION: M24847), which was reported by Hediger et al., was amplified by PCR method and inserted into the multi-cloning site of pcDNA3.1(−) (Invitrogen). The DNA sequence inserted was perfectly matched to the previously reported sequence.
(§3) The vector expressing human SGLT1 or SGLT2 was transfected into COS-7 cells by lipofection method (Lipofectamine-2000: Invitrogen). First, COS-7 cells were plated 5×10^4 cells/100 μL/well on 96-wells plate and incubated at 37° C. for 2 hours. In addition, per 50 μL medium, 0.3 μg of human SGLT1 or SGLT2 expression vector was mixed with 0.5 μL of Lipofectamine-2000 and the complex solution was prepared. Fifty μL/well of this complex solution was added to COS-7 cells, previously described, and the plate was mixed gently and was used for uptake assay after 2 days culture.
A mixture of non-labeled (Sigma) and ^14C-labeled α-MG (Amersham Pharmacia Biotech) was added to the uptake buffer (pH 7.4; containing 140 mM sodium chloride, 2 mM potassium chloride, 1 mM calcium chloride, 1 mM magnesium chloride, 10 mM 2-[4-(2-hydroxyethyl)-1-piperazinyl]ethane sulfonic acid and 5 mM tris(hydroxymethyl)aminomethane) at the final concentration of 1 mM. A test compound was dissolved in dimethyl sulfoxide, and then appropriately diluted with distilled water. The test compound solution was added to the uptake buffer containing 1 mM α-MG, and designated as a measurement buffer. For the control group, the measurement buffer without any test compound was prepared. For measuring the basal uptake, a basal uptake measurement buffer, which contains 140 mM chorine chloride instead of sodium chloride, was prepared. After removing the culture medium of cells expressing human SGLT1 or human SGLT2, 180 μL of the pre-treatment buffer (the basal uptake buffer without α-MG) was added to each well and incubated at 37° C. for 10 minutes. After repeating the same treatment, the pre-treatment buffer was removed, and then 75 μL per well of the measurement buffer or the basal uptake buffer was added and the cells were incubated at 37° C. […] Radioactivity was measured by means of micro-scintillation counter TopCount (Packard). One hundred % was set to the difference between the uptake in the control group and the basal uptake, and the uptake of methyl α-D-glucopyranoside at each drug concentration was calculated. […]

[3] = molecular target: T2, human SGLT2 (Homo sapiens, UniProt P31639); experiment: Inhibition of methyl-α-D-glucopyranoside (α-MG) uptake in COS-7 cells expressing human SGLT2; format: cell-based; settings: COS-7 cells expressing human SGLT2, 1 mM α-MG, 1 hour incubation at 37° C.
T2 construct: expressed in transfected cells; host or cells: COS-7 cells, transient lipofection (Lipofectamine-2000) of pcDNA3.1(-) vector
T2 sequence (P31639 1-672): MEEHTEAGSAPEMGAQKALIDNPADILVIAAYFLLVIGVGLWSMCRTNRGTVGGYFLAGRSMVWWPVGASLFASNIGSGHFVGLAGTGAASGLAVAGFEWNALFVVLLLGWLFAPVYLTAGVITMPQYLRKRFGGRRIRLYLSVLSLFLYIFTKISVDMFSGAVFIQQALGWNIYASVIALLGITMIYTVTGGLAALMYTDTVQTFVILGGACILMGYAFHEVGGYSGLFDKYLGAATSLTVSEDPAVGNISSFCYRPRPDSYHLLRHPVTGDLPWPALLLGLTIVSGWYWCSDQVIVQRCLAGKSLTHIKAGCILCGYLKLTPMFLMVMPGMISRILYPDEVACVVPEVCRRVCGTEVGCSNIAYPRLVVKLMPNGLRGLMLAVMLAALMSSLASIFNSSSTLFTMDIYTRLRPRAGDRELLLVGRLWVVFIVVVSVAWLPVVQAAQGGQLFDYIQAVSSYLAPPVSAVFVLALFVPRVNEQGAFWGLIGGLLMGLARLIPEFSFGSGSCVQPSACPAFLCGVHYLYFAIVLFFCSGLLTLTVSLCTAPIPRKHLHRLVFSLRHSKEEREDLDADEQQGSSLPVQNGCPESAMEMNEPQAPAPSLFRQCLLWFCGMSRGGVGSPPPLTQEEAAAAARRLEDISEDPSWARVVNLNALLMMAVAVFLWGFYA
Experimental: as §1
as §2, with “human kidney” for “human small intestine”, “coding 2” for “coding 1”, “to 2039” for “to 2005”, “human SGLT2” for “human SGLT1”, “(ACCESSION: M95549, M95299),” for “(ACCESSION: M24847),”, “by R. G. Wells” for “by Hediger”
as §3
A mixture of non-labeled (Sigma) and ^14C-labeled α-MG (Amersham Pharmacia Biotech) was added to the uptake buffer (pH 7.4; containing 140 mM sodium chloride, 2 mM potassium chloride, 1 mM calcium chloride, 1 mM magnesium chloride, 10 mM 2-[4-(2-hydroxyethyl)-1-piperazinyl]ethane sulfonic acid and 5 mM tris(hydroxymethyl)aminomethane) at the final concentration of 1 mM. A test compound was dissolved in dimethyl sulfoxide, and then appropriately diluted with distilled water. The test compound solution was added to the uptake buffer containing 1 mM α-MG, and designated as a measurement buffer. For the control group, the measurement buffer without any test compound was prepared. For measuring the basal uptake, a basal uptake measurement buffer, which contains 140 mM chorine chloride instead of sodium chloride, was prepared. After removing the culture medium of cells expressing human SGLT1 or human SGLT2, 180 μL of the pre-treatment buffer (the basal uptake buffer without α-MG) was added to each well and incubated at 37° C. for 10 minutes. After repeating the same treatment, the pre-treatment buffer was removed, and then 75 μL per well of the measurement buffer or the basal uptake buffer was added and the cells were incubated at 37° C. After 1 hour incubation, the measurement buffer was removed and the cells were washed twice with 180 μL per well of the washing buffer (the basal uptake buffer containing 10 mM non-labeled α-MG). The cells were solubilized by 75 μL per well of 0.2 mol/L sodium hydroxide, and then the cell lysates were transferred into PicoPlates (Packard). One hundred fifty μL of Microscint-40 (Packard) was added to the wells and mixed. Radioactivity was measured by means of micro-scintillation counter TopCount (Packard). One hundred % was set to the difference between the uptake in the control group and the basal uptake, and the uptake of methyl α-D-glucopyranoside at each drug concentration was calculated. The drug concentration, at which 50% uptake of methyl α-D-glucopyranoside was inhibited (IC50 value), was calculated using logit plot. The blanks in the Table are untested.

[4] = Test Example 4: inhibitory effects on blood glucose level increase, liquid meal tolerance test in diabetic rats; format: in vivo; settings: streptozotocin diabetic rats, 2 mg/kg orally, liquid meal load, mean ± S.E.
Experimental: Rats, aged 8 weeks old, were injected streptozotocin (45 mg/kg) intravenously from tail vain. After 1 week, rats were fasted overnight and then glucose tolerance test (2 g/kg) was performed.
After overnight fasted, the diabetic rats were or ally administered a test compound (2 mg/kg), which was dissolved in distilled water, in the drug-treating group, or distilled water alone in a control group. Immediately after the compound administration, 3 mL/body of liquid meal (No. 038, Control diet, assorted with dextrin and maltose; Oriental Yeast Co., Ltd., prepared for 323 g/L) was loaded or ally. The blood was collected from tail artery immediately before and after administration with the time course, and treated with heparin immediately. The blood was centrifuged, and the plasma was collected and quantified the plasma glucose concentration by glucose oxidase method. The values in the Table are presented as the mean ±S.E.

[5] = Test Example 3: effect on urinary glucose excretion; format: in vivo; settings: overnight fasted male SD rats, 9 weeks of age, 1 mg/kg intravenously (2 mL/kg), urine collected for 24 hours
Experimental: As experimental animals, overnight fasted SD rats (CHARLES RIVER LABORATORIES JAPAN. Inc., Crj:CD(SD)IGS, male, 9 weeks of age, 300-330 g) were used.
Example 346 compound of 2.90 mg was dissolved by adding 29.0 μL of dimethyl sulfoxide and 2320 μL of polyethylene glycol 400. And then, the solution was mixed with 3450 μL of saline. This 0.5 mg/mL solution was used for administration.
Rats were fasted for overnight. The body weights of rats were measured and urinary glucose excretions were calculated as with the Test Example 2 except for intravenously injection to the tail veins of rats at the dose of 2 mL/kg (1 mg/kg as test compound).

Structure (SMILES) | IC50 [2] [nM] | IC50 [3] [nM] | further results
COc1ccc(Cc2cn([C@@H]3O[C@H](CO)[C@@H](O)[C@H](O)[C@H]3O)c3cc(C)ccc23)cc1 [Example 12, 1-(β-D-glucopyranosyl)-3-(4-methoxybenzyl)-6-methyl-1H-indole] | 3200 | 0.9 | Amount of urinary excretion of glucose in 24 hours [1]: 111.8 mg/200 g body weight
COc1ccc(Cc2cn([C@@H]3O[C@H](CO)[C@@H](O)[C@H](O)[C@H]3O)c3ccccc23)c(F)c1 [Example 15] | – | 11 | –
CCOC(=O)[C@H](CO)NC(=O)CCCc1ccc(Cc2cn([C@@H]3O[C@H](CO)[C@@H](O)[C@H](O)[C@H]3O)c3cccc(C)c23)cc1 [Example 320] | – | – | Plasma glucose concentration 0.5 h ([4]; 0.5 hour after administration): 230 ± 14 mg/dL; Plasma glucose concentration 1 h ([4]; 1 hour after administration): 312 ± 15 mg/dL; Plasma glucose concentration 0 h ([4]; pretreatment (0 h)): 133 ± 10 mg/dL
CCc1ccc(Cc2cn([C@@H]3O[C@H](CO)[C@@H](O)[C@H](O)[C@H]3O)c3ccccc23)cc1 [Example 10] | – | 0.5 | Amount of urinary excretion of glucose in 24 hours [1]: 11.2 mg/200 g body weight
Cc1cccc2c1c(Cc1ccc(CCCC(=O)NC(C)(C)C(=O)N3CCNCC3)cc1)cn2[C@@H]1O[C@H](CO)[C@@H](O)[C@H](O)[C@H]1O [Example 329, 1-(β-D-Glucopyranosyl)-3-(4-[3-{1-(piperazin-1-yl-carbonyl)-1-(methyl)ethylcarbamoyl}propyl]phenyl)methyl-4-methyl-1H-indole] | 41 | – | –
Cc1cccc2c1c(Cc1ccc(OCCCNCCC(N)=O)cc1)cn2[C@@H]1O[C@H](CO)[C@@H](O)[C@H](O)[C@H]1O [Example 318, 3-[(4-{3-[2-(Carbamoyl)ethylamino]propoxy}phenyl)methyl]-1-(β-D-glucopyranosyl)-4-methyl-1H-indole] | 122 | – | –
COc1ccc(Sc2cn([C@@H]3O[C@H](CO)[C@@H](O)[C@H](O)[C@H]3O)c3cc(C)ccc23)cc1 [Example 346, 1-(β-D-Glucopyranosyl)-3-{(4-methoxyphenyl)sulfany}-6-methyl-1H-indole] | – | 0.4 | Amount of urinary excretion of glucose in 24 hours [5]: 33.12 mg/200 g body weight
COc1ccc(Cc2cn([C@@H]3O[C@H](CO)[C@@H](O)[C@H](O)[C@H]3O)c3cccc(C)c23)cc1 [Example 8] | 10 | 0.6 | –
